From patent US20100069316A1, “TREATMENT FOR MULTIPLE MYELOMA” (Ares Trading S.A., priority 2006, published 2010)

System: XG-12 myeloma cell line
Test: Detection of apoptosis (FITC-annexin V), XG-12
Assay type: cell-based, human
Details: day 3 of culture
From the text: Apoptotic cells were detected using fluorescein isothiocyanate-labelled annexin V (FITC-annexin-V, Boehringer Mannheim). Annexin V has a high affinity for phosphatidylserine present on the outer cytoplasmic membrane of apoptotic cells. Cells were washed, labeled with FITC-annexin-V according to the manufacturer's recommendations and analyzed with a FACScan flow cytometer using Cell Quest software (Becton Dickinson, Moutain View, Calif., USA).
Two myeloma cell lines (XG-3 and XG-12) that are sensitive to compound A (1-(4-{4-[4-(4-chlorophenyl)-pyrimidin-2-ylamino]-benzoyl}-piperazin-1-yl)-ethanone) were selected for the study. To assess the effect of compound A on myeloma cell survival, the percentage apoptotic cells was determined using binding of annexin V to apoptotic cells. The effect of compound A on the cell cycle was assessed by evaluating the percentage of cells in the S phase of the cell cycle by incorporation of BrdU-FITC. Apoptosis, cell cycle and cell numeration were evaluated daily on a four day culture period on the cell lines using the IC10, IC50 and I90 respective doses of compound A.

SMILES: CC(=O)N1CCN(C(=O)c2ccc(Nc3nccc(-c4ccc(Cl)cc4)n3)cc2)CC1 [Compound A, 1-(4-{4-[4-(4-Chloro-phenyl)-pyrimidin-2-ylamino]-benzoyl}-piperazin-1-yl)-ethanone]
- Annexin V (%) percentage of apoptotic cells (XG-12, compound A at IC50 concentration): 39.5%
- Annexin V (%) percentage of apoptotic cells (XG-12, compound A at IC90 concentration): 79.8%
